Reference: patent US20210040074A1 (The United States of America,as represented by the …, priority 2018, published 2021)
Where “and” joins values, the source holds several entries; their conditions need not be identical. Identical values can stand only once.

Experiments:
human D1R [1] = biological target: T1, human D1R (Homo sapiens, UniProt P21728); assay: [3H]-SCH23390 radioligand competition binding (HEK293 D1R membranes), incl. allosteric ternary complex model
[2] = tested on: non D1R containing control cells; assay: Forskolin stimulated cAMP accumulation in non D1R containing control cells; format: cell-based
D5 [3] = biological target: T2, D5 (Homo sapiens, UniProt P21918); assay: D5 cAMP assay; conditions: fold change of dopamine EC50, 50 μM compound
T2 sequence (P21918 whole entry): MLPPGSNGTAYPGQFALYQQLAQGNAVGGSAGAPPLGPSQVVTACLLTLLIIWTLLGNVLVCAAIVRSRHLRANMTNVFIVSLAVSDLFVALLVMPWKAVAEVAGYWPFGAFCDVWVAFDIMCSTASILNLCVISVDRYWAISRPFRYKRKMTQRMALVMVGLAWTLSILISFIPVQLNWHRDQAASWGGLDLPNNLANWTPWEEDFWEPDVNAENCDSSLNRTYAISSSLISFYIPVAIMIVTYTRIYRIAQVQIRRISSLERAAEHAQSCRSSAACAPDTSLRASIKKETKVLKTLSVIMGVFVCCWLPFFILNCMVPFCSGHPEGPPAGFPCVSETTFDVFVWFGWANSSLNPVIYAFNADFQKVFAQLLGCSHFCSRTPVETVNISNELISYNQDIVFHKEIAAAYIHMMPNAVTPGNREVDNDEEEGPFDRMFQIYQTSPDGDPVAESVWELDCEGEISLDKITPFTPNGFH
Experimental: (§1) cAMP Accumulation Assay. Assays were performed on D1R-HEK293 (Codex Biosolutions, Gaithersburg, Md.) cells stably expressing the human D1R. HEK293 cell lines were maintained in Dulbecco's modified Eagles medium, supplemented with 10% fetal bovine serum, 100 U/ml penicillin, 100 μg/ml streptomycin, 1 mM sodium pyruvate, and 250 μg/ml G418 and incubated at 37° C., 5% CO2, and 90% humidity. […] After 18-24 h incubation at 37° C., 5% CO2, and 90% humidity, the media was removed and replaced with 5 μL/well PBS. […] Briefly, antibody and working solution was added to each well according to the manufacturer's protocol, and incubated in the dark at room temperature for 60 min. Following incubation, enzyme acceptor reagent was added to the plates and luminescence (RLU) was measured (FDSS μCell, Hamamatsu Photonics K. K., Bridgewater, N.J.) following a 3 h incubation in the dark at room temperature.

D5 [4] = biological target: T2, D5; assay: D5R β-arrestin recruitment assay (DiscoverX PathHunter, CHO cells); format: cell-based; set-up: host or cells: CHO-K1
Method in brief: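 CHO PathHunter cells, 18-24 h after plating, received compound in PBS with 0.2 mM sodium metabisulfite for 90 min at 37° C. Detection reagent then 60 min dark at room temperature; luminescence read. PAMs also tested without DA agonist.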

D2R = D2R (Homo sapiens, UniProt P14416); assay: D2R β-arrestin BRET assay; conditions: 50 μM compound
D2R, sequence (P14416 whole entry): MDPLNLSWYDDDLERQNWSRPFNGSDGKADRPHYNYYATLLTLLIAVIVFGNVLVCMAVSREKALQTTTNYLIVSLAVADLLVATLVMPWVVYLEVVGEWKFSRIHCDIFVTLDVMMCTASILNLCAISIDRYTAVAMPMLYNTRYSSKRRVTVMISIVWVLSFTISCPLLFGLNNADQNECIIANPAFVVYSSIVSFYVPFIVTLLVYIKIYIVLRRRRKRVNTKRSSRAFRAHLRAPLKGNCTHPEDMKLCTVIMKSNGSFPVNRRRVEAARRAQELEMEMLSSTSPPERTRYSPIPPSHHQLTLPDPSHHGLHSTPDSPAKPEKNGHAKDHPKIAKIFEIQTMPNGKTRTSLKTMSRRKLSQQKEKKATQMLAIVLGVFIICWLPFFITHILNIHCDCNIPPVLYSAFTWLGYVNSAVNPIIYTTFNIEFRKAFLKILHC
Experimental: (§2) Bioluminescence Resonance Energy Transfer (BRET) Assays. Experiments were performed in HEK239 cells transiently transfected with D1R-RLuc8 and β-arrestin-mVenus (β-arrestin BRET) or Gαs-mVenus+β1+γ2 (Gs BRET) using the polyethylenimine (PEI) transfection method. […] Appropriate amounts of DNA were combined with 3 μg/μL PEI per μg of DNA in nonsupplemented DMEM and incubated with the cells overnight. Experiments were performed 48 hours post-transfection. On experiment day, cells were collected and resuspended in Dulbecco's Phosphate-Buffered Saline (DPBS) with Ca2+ and Mg2++0.2 mM sodium metabisulfite+5.5 mM glucose.

D3R = D3R (Homo sapiens, UniProt P35462); assay: D3R β-arrestin BRET assay; conditions: 50 μM compound
D3R, sequence (P35462 whole entry): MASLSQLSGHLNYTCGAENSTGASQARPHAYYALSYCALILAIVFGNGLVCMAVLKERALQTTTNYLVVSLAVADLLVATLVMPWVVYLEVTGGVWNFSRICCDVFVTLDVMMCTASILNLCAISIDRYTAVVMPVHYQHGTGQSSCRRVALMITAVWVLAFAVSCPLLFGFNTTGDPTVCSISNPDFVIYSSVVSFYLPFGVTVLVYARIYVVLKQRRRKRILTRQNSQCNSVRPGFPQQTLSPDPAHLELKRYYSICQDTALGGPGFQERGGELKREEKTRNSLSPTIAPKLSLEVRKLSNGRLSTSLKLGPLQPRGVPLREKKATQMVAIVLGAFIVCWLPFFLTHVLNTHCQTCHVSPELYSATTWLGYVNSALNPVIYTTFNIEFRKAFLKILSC
Experimental: as §2

D4R [5] = biological target: T3, D4R (Homo sapiens, UniProt P21917); assay: D4R β-arrestin BRET assay; conditions: 50 μM compound
T3 sequence (P21917 1-419): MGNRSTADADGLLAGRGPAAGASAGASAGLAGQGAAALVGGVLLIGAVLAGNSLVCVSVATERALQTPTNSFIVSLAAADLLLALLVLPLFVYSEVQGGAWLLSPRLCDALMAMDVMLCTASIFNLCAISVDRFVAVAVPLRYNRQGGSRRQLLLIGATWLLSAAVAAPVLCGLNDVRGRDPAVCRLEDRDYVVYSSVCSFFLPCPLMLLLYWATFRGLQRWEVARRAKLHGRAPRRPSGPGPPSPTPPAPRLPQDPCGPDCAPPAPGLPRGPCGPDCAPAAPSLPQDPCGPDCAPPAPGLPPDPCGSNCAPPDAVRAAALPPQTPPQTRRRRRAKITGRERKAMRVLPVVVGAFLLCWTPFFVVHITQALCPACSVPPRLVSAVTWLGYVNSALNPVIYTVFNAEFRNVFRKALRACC
Experimental: as §2

β2AR = β2AR (Homo sapiens, UniProt P07550); assay: β2AR β-arrestin BRET assay; conditions: 50 μM compound
β2AR, sequence (P07550 whole entry): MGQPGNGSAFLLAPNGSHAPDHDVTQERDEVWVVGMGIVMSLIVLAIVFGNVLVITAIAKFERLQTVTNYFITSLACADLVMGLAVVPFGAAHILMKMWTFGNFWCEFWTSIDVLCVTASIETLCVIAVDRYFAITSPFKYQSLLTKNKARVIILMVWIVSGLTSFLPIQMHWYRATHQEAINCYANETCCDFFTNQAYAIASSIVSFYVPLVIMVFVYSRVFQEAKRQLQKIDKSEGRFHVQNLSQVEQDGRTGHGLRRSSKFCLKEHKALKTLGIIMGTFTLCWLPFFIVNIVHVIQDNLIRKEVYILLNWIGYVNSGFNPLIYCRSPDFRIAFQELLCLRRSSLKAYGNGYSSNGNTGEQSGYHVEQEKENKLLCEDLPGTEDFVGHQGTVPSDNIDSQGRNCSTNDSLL
Experimental: as §2

human D1R [6] = biological target: T1, human D1R; assay: D1 cAMP accumulation assay (D1R-HEK293 cells, DiscoverX HitHunter)
Experimental: as §1

human D1R [7] = biological target: T1, human D1R; assay: D1R β-arrestin recruitment assay (DiscoverX PathHunter, CHO-K1 cells); set-up: Emax: dose or concentration left out as unconfirmed
Experimental: β-arrestin Recruitment Assay. […] Following 18-24 h of incubation, the cells were treated with the indicated concentrations of compound in PBS buffer containing 0.2 mM sodium metabisulfite, and incubated at 37° C. for 90 min. DiscoverX reagent was added to cells according to the manufacturer's protocol, followed by a 60 min incubation in the dark at room temperature. Luminescence was measured on a Hamamatsu FDSS μ-Cell reader (Hamamatsu, Bridgewater, N.J.) and data were collected using the FDSS software.
The DiscoverX PathHunter β-Arrestin Assay was used to measure β-arrestin reuitment to the D1R following the manufacturer's instructions.

D4R [8] = biological target: T3, D4R; assay: D4 β-arrestin recruitment assay (DiscoverX PathHunter, CHO-K1 cells); format: cell-based; set-up: inferred from the same PathHunter system described for D1R and D5R; host or cells: CHO-K1; conditions: fold change of dopamine EC50, 50 μM compound
[9] = allosteric ternary complex model
[10] = fold change of dopamine EC50, 50 μM compound
[11] = operational model of allosterism

T1 sequence (P21728 whole entry): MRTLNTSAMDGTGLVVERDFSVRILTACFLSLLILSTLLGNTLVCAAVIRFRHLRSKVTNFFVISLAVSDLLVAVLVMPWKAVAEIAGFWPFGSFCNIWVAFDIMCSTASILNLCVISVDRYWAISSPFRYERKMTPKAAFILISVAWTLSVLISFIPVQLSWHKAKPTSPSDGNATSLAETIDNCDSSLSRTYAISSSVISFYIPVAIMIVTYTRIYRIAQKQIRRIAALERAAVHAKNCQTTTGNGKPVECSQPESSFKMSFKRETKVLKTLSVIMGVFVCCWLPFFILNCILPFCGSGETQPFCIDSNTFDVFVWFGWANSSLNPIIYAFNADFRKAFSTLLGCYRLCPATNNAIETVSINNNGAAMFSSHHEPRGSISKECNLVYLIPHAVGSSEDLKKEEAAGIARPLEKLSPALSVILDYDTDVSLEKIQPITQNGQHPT

CC(C)(C)C1CCc2c(sc(NC(=O)c3ccncc3)c2C(N)=O)C1 (stereo not shown) [Compound 28]
Kb (human D1R [1]): 5.37 µM
log α (human D1R [1]; [9]): 0.82±0.11
α (binding cooperativity between PAM and dopamine) (human D1R [1]; [9]): 6.61
effect on [3H]-SCH23390 binding (human D1R [1]; compound alone, up to 50 μM): complete inhibition
leftward shift of dopamine competition curve (increase in dopamine affinity) (human D1R [1]; dopamine competition with [3H]-SCH23390, increasing concentrations of compound): ~7 fold
decrease of [3H]-SCH23390 binding (human D1R [1]; highest concentration tested, 50 μM): ~66%
effect on forskolin stimulated cAMP accumulation [2]: no increase
D5 cAMP: DA + 50 μM PAM, Fold Change EC50 (D5 [3]): 1.63
D5 Beta-Arrestin: DA + 50 μM PAM, Fold Change EC50 (D5 [4]; [10]): 1.25
agonist response of PAM alone at D5R (D5 [4]; in the absence of DA): Neither PAM produced an agonist response
potentiation of dopamine response at D2R (D2R): Neither PAM produced any measurable potentiation
potentiation of dopamine response at D3R (D3R): Neither PAM produced any measurable potentiation
potentiation of dopamine response at D4R (D4R [5]): Neither PAM produced any measurable potentiation
potentiation of epinephrine response at β2AR (β2AR): Neither PAM produced any measurable potentiation
increase in dopamine potency for cAMP accumulation (human D1R [6]; 50 μM compound vs DA alone): 5 fold and 4 fold
agonist activity for cAMP accumulation (human D1R [6]; compound alone): Neither compound 1 (FIGS. 3A and 3B) nor compound 28 (FIGS. 3C and 3D) demonstrated any agonist activity
D1 cAMP: DA + 50 μM PAM, Fold Chg EC50 (human D1R [6]; [10]): 2.93
Kb (human D1R [7]): 5.4 µM
increase in dopamine potency (EC50) for β-arrestin recruitment to D1R (human D1R [7]; 50 μM compound vs DA alone): 8 fold
Emax (human D1R [7]; CHO-K1, read-out: increase in dopamine efficacy (Emax) for β-arrestin recruitment to D1R): 34%
agonist activity of PAM alone, β-arrestin recruitment (human D1R [7]; concentration response with the PAM, no dopamine): Neither PAM displayed any measurable agonist activity
effect on potency of D1R partial agonists (human D1R [7]; fenoldopam, apomorphine, SKF38393, SKF77434): Neither PAM altered the potency
D1 Beta-Arrestin: DA + 50 μM PAM, Fold Chg EC50 (human D1R [7]; [10]): 8.29
log β (modulatory effect on dopamine efficacy) (human D1R [7]; [11]): 0.32±0.1
β (modulatory effect on dopamine efficacy) (human D1R [7]; [11]): 2.09
increase in SKF77434-stimulated response (human D1R [7]; partial agonist SKF77434 + PAM, text says cAMP accumulation, FIG. 5D legend β-arrestin): 96%
increase in efficacy of SKF38393 (human D1R [7]; β-arrestin recruitment, G-protein biased partial agonist SKF38393 + PAM): 151%
increase in efficacy of apomorphine (human D1R [7]; β-arrestin recruitment, partial agonist apomorphine + PAM): 134%
increase in efficacy of fenoldopam (human D1R [7]; β-arrestin recruitment, partial agonist fenoldopam + PAM): 83%
D4 Beta-Arrestin: DA + 50 μM PAM, Fold Change EC50 (D4R [8]): 1.72

CC(C)(C)C1CCc2c(sc(NC(=O)c3cccnc3)c2C(N)=O)C1 (stereo not shown) [Example 2.3, N-(6-(Tert-butyl)-3-carbamoyl-4,5,6,7-tetrahydrobenzo[b]thiophen-2-yl)nicotinamide]
melting point: 195 to 209 °C
